This is an account of results in ChEMBL document CHEMBL3352043, “Discovery of small-molecule inhibitors selectively targeting the DNA-binding domain of the human androgen receptor” (J Med Chem, 2014).

What is called IC50 is the concentration that inhibits the measured activity by half.

In series [1] the target is T1, Androgen receptor (Homo sapiens, UniProt P10275).
T1 sequence (P10275 whole entry): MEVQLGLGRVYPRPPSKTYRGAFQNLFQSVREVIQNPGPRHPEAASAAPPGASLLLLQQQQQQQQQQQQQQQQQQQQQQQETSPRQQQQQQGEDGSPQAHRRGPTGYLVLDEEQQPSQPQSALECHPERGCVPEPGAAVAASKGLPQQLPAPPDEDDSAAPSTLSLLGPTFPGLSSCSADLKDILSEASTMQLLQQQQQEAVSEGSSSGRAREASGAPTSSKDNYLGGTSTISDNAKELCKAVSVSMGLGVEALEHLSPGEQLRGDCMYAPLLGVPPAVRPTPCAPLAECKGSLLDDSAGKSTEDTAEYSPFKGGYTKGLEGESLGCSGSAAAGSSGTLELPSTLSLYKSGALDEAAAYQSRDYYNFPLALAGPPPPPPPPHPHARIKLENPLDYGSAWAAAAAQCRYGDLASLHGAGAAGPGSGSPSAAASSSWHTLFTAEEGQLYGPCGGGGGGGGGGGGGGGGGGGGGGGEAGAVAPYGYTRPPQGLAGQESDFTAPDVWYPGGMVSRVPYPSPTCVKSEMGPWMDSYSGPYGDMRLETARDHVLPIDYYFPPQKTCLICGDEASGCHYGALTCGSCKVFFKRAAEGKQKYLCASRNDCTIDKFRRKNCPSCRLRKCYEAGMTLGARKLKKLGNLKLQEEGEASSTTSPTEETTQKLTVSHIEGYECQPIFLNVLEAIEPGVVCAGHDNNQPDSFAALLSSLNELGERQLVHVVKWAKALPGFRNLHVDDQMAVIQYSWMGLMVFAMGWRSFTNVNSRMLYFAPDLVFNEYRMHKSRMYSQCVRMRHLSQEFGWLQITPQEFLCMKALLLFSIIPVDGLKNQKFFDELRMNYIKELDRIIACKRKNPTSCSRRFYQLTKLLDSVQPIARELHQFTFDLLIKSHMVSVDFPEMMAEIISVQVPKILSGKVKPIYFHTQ
Briefly: Inhibition of androgen receptor transcriptional activity in human LNCaP cells after 3 days by eGFP assay. It counts as cell-based.

The target in series [2] is T1, Androgen receptor. Briefly: Inhibition of androgen receptor in human LNCaP cells assessed as inhibition of prostate-specific antigen secretion into media after 3 days. It counts as cell-based.
A short description of series [3]: Stability of the compound in RPMI plus 5% charcoal stripped serum media after 1 hr by MS analysis. The class given is physicochemical.
Another series deals with LNCaP. Nature of the series: Growth inhibition of AR-dependent human LNCAP cells at 0.001 to 3 uM after 3 days by MTS assay. It counts as functional, cell-based. For orientation: Tetrazolium assays rely on reduction of a dye to a coloured formazan, in cell work by metabolically active cells.
A short description of series [4]: Growth inhibition of AR-negative human PC3 cells after 3 days by MTS assay. It counts as cell-based. To be noted: pc-3, 72 h.

The source made the active and inactive calls. The rule behind the calls is not given here.

The compound `c1ccc(-c2csc(N3CCSCC3)n2)cc1` had an IC50 on Androgen receptor [1] of 620 nM.

Regarding `Clc1ncn(-c2csc(N3CCOCC3)n2)c1Br`, the IC50 on Androgen receptor [1] came to 330 nM; at Androgen receptor [2], 440 nM.

In the case of `CS(=O)(=O)c1c(F)cccc1-c1csc(N2CCOCC2)n1`, half-maximal inhibition against Androgen receptor [1] (IC50) required 3560 nM.

Take `COc1cc(F)ccc1-c1csc(N2CCOCC2)n1`: the IC50 is 300 nM against Androgen receptor [1] and 230 nM at Androgen receptor [2].

Take `CCc1sc(N2CCOCC2)nc1-c1ccccc1`: the IC50 against Androgen receptor [1] came to 5800 nM; on Androgen receptor [2] it was 8430 nM.

In the case of `Clc1ncn(-c2csc(N3CCOCC3)n2)c1Cl`, the IC50 came out at 680 nM at Androgen receptor [1] and 570 nM at Androgen receptor [2]. In series [3], the Stability entry is listed as “Stable”.

As for `Oc1ccc(-c2ccc3ccccc3n2)cc1`, the IC50 against Androgen receptor [1] was determined as 9840 nM.

For `c1ccc(-c2ccc(N3CCOCC3)s2)cc1`, the IC50 against Androgen receptor [1] was found to be 520 nM; at Androgen receptor [2] it was 510 nM.

With `Cc1ccc(C)c(-c2csc(N3CCOCC3)n2)c1`, the results for the IC50 at Androgen receptor [1] and at Androgen receptor [2] were 620 nM and 520 nM, respectively.

With `Cc1scc(-c2csc(N3CCOCC3)n2)c1C`, the IC50 came out at 250 nM against Androgen receptor [1] and 430 nM at Androgen receptor [2].

For `CNc1nc(-c2ccc3ccccc3c2)cs1`, the IC50 against Androgen receptor [1] was determined as 3170 nM; at Androgen receptor [2], 3910 nM.

In the case of `c1ccc(-c2csc(N3CCOCC3)n2)nc1`, on Androgen receptor [1], the IC50 is 2580 nM.

Turning to `Oc1ccc(-c2nc(-c3c[nH]c4ccccc34)cs2)cc1`, the IC50 was 5050 nM against Androgen receptor [1] and 6460 nM at Androgen receptor [2].

Consider `Fc1ccc(-c2csc(N3CCOCC3)n2)cc1`, for which the IC50 against Androgen receptor [1] was found to be 650 nM; at Androgen receptor [2], 410 nM.

Turning to `Cc1ncn(-c2csc(N3CCOCC3)n2)c1C`, the IC50 against Androgen receptor [1] is 3560 nM; at Androgen receptor [2] it was 2420 nM.

`Oc1c(F)cccc1-c1csc(N2CCOCC2)n1`: the results for the IC50 at Androgen receptor [1] and on Androgen receptor [2] were 270 nM and 150 nM, respectively.

On to `Fc1ccc(-c2csc(N3CCSCC3)n2)cc1`, for which the IC50 at Androgen receptor [1] amounted to 1590 nM.

On to `c1ccc(-c2csc(N3CCCCC3)n2)cc1`, for which the figures for the IC50 against Androgen receptor [1] and at Androgen receptor [2] were 1030 nM and 690 nM, respectively.

Regarding `Cc1cc(/C=C/c2ccc3cc(N(C)C)ccc3[n+]2C)c(C)n1-c1ccccc1`, in the series on LNCaP, the “growth inhibition (GI)” value was “inactive”.

The compound `COc1c(F)cc(O)cc1-c1csc(N2CCOCC2)n1` came in with an IC50 at Androgen receptor [1] of 3020 nM.

Regarding `Clc1c(Br)ncn1-c1csc(N2CCOCC2)n1`, the IC50 against Androgen receptor [1] was determined as 1450 nM; at Androgen receptor [2], 1280 nM.

Compound `Fc1ccc(-c2csc(-c3ccncc3)n2)cc1` had an IC50 on Androgen receptor [1] of 1270 nM.

Turning to `Clc1ccc(-c2csc(N3CCOCC3)n2)cc1Cl`, the results for the IC50 against Androgen receptor [1] and at Androgen receptor [2] were 3320 nM and 2960 nM, respectively.

For the compound `Oc1c(-c2csc(N3CCOCC3)n2)ccc(F)c1F`, the values for the IC50 against Androgen receptor [1] and at Androgen receptor [2] were 800 nM and 700 nM, respectively.

Regarding `FC(F)(F)c1cccc(-c2csc(N3CCOCC3)n2)c1`, the IC50 worked out at 610 nM on Androgen receptor [1] and 580 nM at Androgen receptor [2].

Regarding `N#Cc1ccc(-c2ccc(N3CCOCC3)s2)cc1`, the IC50 was 1440 nM on Androgen receptor [1] and 890 nM on Androgen receptor [2].

For the compound `Oc1ccc2nc(N3CCOCC3)sc2c1`, the IC50 against Androgen receptor [1] turned out to be 7410 nM; at Androgen receptor [2], 8080 nM.

Consider `Cc1cc(C=Cc2ccc3cc(N(C)C)ccc3[n+]2C)c(C)n1-c1ccccc1.O=C([O-])c1cc2ccccc2c(Cc2c(O)c(C(=O)O)cc3ccccc23)c1O`, for which the Activity entry in series [4] is “Toxic”.

For the compound `c1ccc2nc(-c3ccncc3)ccc2c1`, the results for the IC50 against Androgen receptor [1] and on Androgen receptor [2] were 4200 nM and 2260 nM, respectively.

With `c1cc(-c2csc(N3CCOCC3)n2)cs1`, the IC50 at Androgen receptor [1] was 260 nM; at Androgen receptor [2], 220 nM.

The compound `Cc1sc(N2CCOCC2)nc1-c1ccccc1` showed an IC50 against Androgen receptor [1] of 1460 nM.

Consider `Clc1ccc(-c2csc(N3CCOCC3)n2)c(Cl)c1`, for which the IC50 on Androgen receptor [1] amounted to 1660 nM; on Androgen receptor [2], 1320 nM.

Consider `COc1c(-c2csc(N3CCOCC3)n2)ccc(F)c1F`, for which the figures for the IC50 against Androgen receptor [1] and on Androgen receptor [2] were 180 nM and 250 nM, respectively.

Turning to `OCc1sc(N2CCOCC2)nc1-c1ccccc1`, the half-maximal inhibitory concentration (IC50) against Androgen receptor [1] is 5040 nM.

Take `Nc1ccccc1-c1csc(N2CCOCC2)n1`: the IC50 against Androgen receptor [1] came to 1380 nM; on Androgen receptor [2], 2030 nM.

Consider `FC(F)(F)[C@H]1CN(c2nc(-c3ccccc3)cs2)CCO1`, for which the IC50 against Androgen receptor [1] came to 1650 nM; on Androgen receptor [2], 160 nM.

`c1cc(-c2csc(N3CCOCC3)n2)ccn1` displayed an IC50 against Androgen receptor [1] of 2940 nM.

As for `Oc1cc(F)ccc1-c1csc(N2CCOCC2)n1`, the values for the IC50 against Androgen receptor [1] and at Androgen receptor [2] were 1190 nM and 810 nM, respectively.

Turning to `Clc1cn(-c2csc(N3CCOCC3)n2)cn1`, the IC50 was 960 nM on Androgen receptor [1] and 720 nM at Androgen receptor [2].

Take `Brc1cn(-c2csc(N3CCOCC3)n2)cn1`: the IC50 against Androgen receptor [1] amounted to 2800 nM; at Androgen receptor [2], 1740 nM.

Consider `Ic1ncn(-c2csc(N3CCOCC3)n2)c1I`, for which the values for the IC50 against Androgen receptor [1] and on Androgen receptor [2] were 1730 nM and 1810 nM, respectively. For the same compound, in series [3], the Stability result is “Stable”.

Consider `c1ccc(-c2cc(N3CCOCC3)cs2)cc1`, for which the figures for the IC50 against Androgen receptor [1] and on Androgen receptor [2] were 1240 nM and 840 nM, respectively.

Turning to `c1ccc(-c2csc(-c3ccncc3)n2)cc1`, the IC50 at Androgen receptor [1] came to 1200 nM; at Androgen receptor [2], 630 nM.

`Nc1nc(-c2ccc3ccccc3c2)cs1`: the IC50 stood at 9160 nM on Androgen receptor [1] and 10600 nM on Androgen receptor [2].

On to `Clc1ncn(-c2csc(N3CCOCC3)n2)c1I`, for which the IC50 at Androgen receptor [1] amounted to 2610 nM; at Androgen receptor [2], 4020 nM.
